From US20150089682A1, “ALS Inhibitor Herbicide Tolerant B. Napus Mutants” (priority 2012, published 2015)
Where two headings read alike, the source gives them in different places.

Columns and labels:
[1] = target: T1, Arabidopsis thaliana S653N-mutant ALS (Arabidopsis thaliana, UniProt P17597, E575Q/S653N); test: biochemical; conditions: for Resistance Factor S653N: relative to WT, from measured pI50; for IC50: read-out: pI50 S653N (converted)
T1 construct: vector-encoded N-terminal fusion of pET-32a(+) (Trx/His/S tag by own knowledge); made in house; host or cells: Escherichia coli AD494
Procedure: (§1) Bacteria were grown at 37° C. in LB-medium containing 100 mg/1 carbenicillin and 25 mg/1 canamycin, induced with 1 mM isopropyl-β-D-thiogalactopyranoside at an OD600 of 0.6, cultivated for 16 hours at 18° C. and harvested by centrifugation. Bacterial pellets were resusupended in 100 mM sodium phosphate buffer pH 7.0 containing 0.1 mM thiamine-pyrophosphate, 1 mM MgCl2, and 1 μM FAD at a concentration of 1 gram wet weight per 25 ml of buffer and disrupted by sonification. The crude protein extract obtained after centrifugation was used for ALS activity measurements.
(§2) Assays were initiated by adding enzyme and terminated after 75 min incubation at 30° C. by the addition to 40 μl 0.5 M H2SO4. […] Reaction velocities were tiffed to the Michalis-Menten equation with the XLFit curve fitting program.

[2] = target: T2, Arabidopsis thaliana W574L-mutant ALS (Arabidopsis thaliana, UniProt P17597, E575Q/W574L); test: biochemical; conditions: for Resistance Factor W574L: relative to WT, from measured pI50; for IC50: read-out: pI50 W574L (converted)
T2 construct: vector-encoded N-terminal fusion of pET-32a(+) (Trx/His/S tag by own knowledge); made in house; host or cells: Escherichia coli AD494
Procedure: as §1, §2

[3] = target: T3, Arabidopsis thaliana P197S-mutant ALS (Arabidopsis thaliana, UniProt P17597, E575Q/P197S); test: biochemical; conditions: for Resistance Factor P197S: relative to WT, from measured pI50; for IC50: read-out: pI50 P197S (converted)
T3 construct: vector-encoded N-terminal fusion of pET-32a(+) (Trx/His/S tag by own knowledge); made in house; host or cells: Escherichia coli AD494
Procedure: as §1, §2

[4] = target: T4, mixture of S653N and W574L ALS enzymes (Arabidopsis thaliana, UniProt P17597); type: biochemical; conditions: for Resistance Factor S653N & W574L: relative to WT, calculated; for pI50 S653N & W574L: calculated for a mixture of equal activities of the two enzymes, pI50=3.0 used where measured <4
T4 construct: crude E. coli extract was used
Procedure: as §2
(§3) To characterize the response of a mixture of two different ALS enzymes to a given ALS inhibitor the following assumptions were made: • a inhibition is competitive and reversible • b. in the absence of inhibitor, equal activities of the ALS (mutant) enzymes 1 and 2 are present
(§4) Using experimentally determined pI50-values for various ALS-inhibiting herbicides, enzyme activities at different inhibitor concentrations were calculated (see Theory) for each ALS enzyme. Total ALS activity at any given inhibitor concentration is the sum of the activity of (mutant) enzyme 1 and (mutant) enzyme 2. If the experimentally determined pI50-value was <4, pI50=3.0 was used for the calculations. If the calculated pI50-value was 3.0, the pI50 was redefined as <4.

[5] = test system: spring oilseed rape homozygous for HETO108 and HETO121; test: Herbicide tolerance in the field, visible phytotoxicity; type: in vivo, Brassica napus
Excerpt: (§5) Seeds of spring oilseed rape homozygous for HETO108 and HETO121 were sown in a field according to typical practical agricultural methods. The registered spring oilseed rape variety ABILITY served as a comparison. All plants were cultivated up to BBCH stage 14 (four true leaves of the oilseed rape plants). Afterwards, the herbicides mentioned in table 2 have been applied to the oilseed rape plants by using specific spray equipment for small plot applications. The water amount used was 200 L/ha.

[6] = test system: spring oilseed rape variety ABILITY; test: as above; type: in vivo, Brassica napus
Excerpt: as §5

[7] = target: T5, mixture of P197S and W574L ALS enzymes (Arabidopsis thaliana, UniProt P17597); type: biochemical; conditions: for Resistance Factor P197S & W574L: relative to WT, calculated; for pI50 P197S & W574L: calculated for a mixture of equal activities of the two enzymes, pI50=3.0 used where measured <4
T5 construct: crude E. coli extract was used
Procedure: as §2, §3, §4

[8] = target: T6, Arabidopsis thaliana wild-type ALS (Arabidopsis thaliana, UniProt P17597, E575Q); test: biochemical; conditions: measured, crude extract of E. coli expressed enzyme; for IC50: read-out: pI50 WT (converted)
T6 construct: vector-encoded N-terminal fusion of pET-32a(+) (Trx/His/S tag by own knowledge); made in house; host or cells: Escherichia coli AD494
Procedure: as §1, §2

[9] = measured, crude extract of E. coli expressed enzyme
[10] = Brassica napus, topical, 432 h, read-out: % phytotox

Row | Molecule | Resistance Factor S653N [1] | Resistance Factor W574L [2] | Resistance Factor P197S [3] | Resistance Factor S653N & W574L [4] | Resistance Factor P197S & W574L [7] | pI50 P197S & W574L [7] | pI50 S653N & W574L [4] | IC50 [1, 9] | IC50 [2, 9] | IC50 [3, 9] | IC50 [8] | also measured
1 | iodosulfuron-methyl-sodium [Iodosulfuron-methy-sodium] | 10 | 631 | 158 | 79 | – | – | – | – | – | – | – | % phytotox ([5]; HETO108-HETO121, AI dose rate 7 gai/ha, field, 18 days after application, 0%=no phytotoxic effects, 100%=all plants killed): 43%; % phytotox ([6]; ABILITY, AI dose rate 7 gai/ha, field, 18 days after application, 0%=no phytotoxic effects, 100%=all plants killed): 100%
2 | CCCOc1nn(C(=O)[N-]S(=O)(=O)c2ccccc2C(=O)OC)c(=O)n1C.[Na+] [Propoxycarbazone, propoxycarbazone-sodium] | 25 | 316 | 158 | 100 | 200 | – | – | – | – | – | – | % phytotox ([5]; HETO108-HETO121, AI dose rate 70 gai/ha, field, 18 days after application, 0%=no phytotoxic effects, 100%=all plants killed): 65%; % phytotox ([6]; ABILITY, AI dose rate 70 gai/ha, field, 18 days after application, 0%=no phytotoxic effects, 100%=all plants killed): 100%
3 | COc1cc(OC)n2nc(NS(=O)(=O)c3c(C(F)(F)F)ccnc3OC)nc2n1 [Pyroxsulam, pyroxsulam] | 63 | >39810 | 251 | 1995 | 6310 | 4.8 | 5.3 | – | – | – | – | pI50 S653N [1, 9]: 6.8; pI50 W574L [2, 9]: <4; pI50 P197S [3, 9]: 6.2; pI50 WT [8]: 8.6; % phytotox ([5]; HETO108-HETO121, AI dose rate 50 gai/ha, field, 18 days after application, 0%=no phytotoxic effects, 100%=all plants killed): 0%; % phytotox ([6]; ABILITY, AI dose rate 50 gai/ha, field, 18 days after application, 0%=no phytotoxic effects, 100%=all plants killed): 99%
4 | COC(=O)c1ccc(C(F)(F)F)nc1S(=O)(=O)NC(=O)Nc1nc(OC)cc(OC)n1 [Flupyrsulfuron-methyl, flupyrsulfuron-methyl-sodium] | – | – | – | – | – | – | – | – | – | – | – | pest or weed control at 10 g/ha [5, 10]: 35%; pest or weed control at 10 g/ha [6, 10]: 100%
5 | COc1cc(OC)nc(NC(=O)NS(=O)(=O)c2ncccc2C(=O)N(C)C)n1 [Nicosulfuron, nicosulfuron] | 20 | >794 | 8 | 398 | 251 | 4.5 | 4.3 | 2.51 µM | > 100 µM | 1 µM | 0.126 µM | pest or weed control at 60 g/ha ([5]; Brassica napus, topical, 432 h, HETO108-HETO121, AI dose rate 60 gai/ha, field, 18 days after application, 0%=no phytotoxic effects, 100%=all plants killed, read-out: % phytotox): 55%; pest or weed control at 60 g/ha ([6]; Brassica napus, topical, 432 h, ABILITY, AI dose rate 60 gai/ha, field, 18 days after application, 0%=no phytotoxic effects, 100%=all plants killed, read-out: % phytotox): 100%
6 | COC(=O)c1ccc(CNS(C)(=O)=O)cc1S(=O)(=O)NC(=O)Nc1nc(OC)cc(OC)n1 [Mesosulfaron-methyl, mesosulfuron-methyl] | 16 | 31623 | 79 | 200 | 794 | – | – | – | – | – | – | % phytotox ([5]; HETO108-HETO121, AI dose rate 15 gai/ha, field, 18 days after application, 0%=no phytotoxic effects, 100%=all plants killed): 30%; % phytotox ([6]; ABILITY, AI dose rate 15 gai/ha, field, 18 days after application, 0%=no phytotoxic effects, 100%=all plants killed): 99%
7 | CCS(=O)(=O)c1nc2ccccn2c1S(=O)(=O)NC(=O)Nc1nc(OC)cc(OC)n1 [Sulfosulfuron, sulfosulfuron] | 5 | >3981 | 1585 | 158 | 10000 | 3.6 | 5.4 | 0.126 µM | > 100 µM | 39.8 µM | 0.0251 µM | pest or weed control at 10 g/ha ([5]; Brassica napus, topical, 432 h, HETO108-HETO121, AI dose rate 10 gai/ha, field, 18 days after application, 0%=no phytotoxic effects, 100%=all plants killed, read-out: % phytotox): 3%; pest or weed control at 10 g/ha ([6]; Brassica napus, topical, 432 h, ABILITY, AI dose rate 10 gai/ha, field, 18 days after application, 0%=no phytotoxic effects, 100%=all plants killed, read-out: % phytotox): 100%
8 | COC(=O)c1sccc1S(=O)(=O)NC(=O)Nc1nc(C)nc(OC)n1 [Thifensulfuron-Methyl, thifensulfuron-methyl] | 5 | 1585 | 200 | 100 | 631 | 4.6 | 5.4 | 0.2 µM | 63.1 µM | 7.94 µM | 0.0398 µM | pest or weed control at 5 g/ha ([5]; Brassica napus, topical, 432 h, HETO108-HETO121, AI dose rate 5 gai/ha, field, 18 days after application, 0%=no phytotoxic effects, 100%=all plants killed, read-out: % phytotox): 0%; pest or weed control at 5 g/ha ([6]; Brassica napus, topical, 432 h, ABILITY, AI dose rate 5 gai/ha, field, 18 days after application, 0%=no phytotoxic effects, 100%=all plants killed, read-out: % phytotox): 85%
9 | COC(=O)c1ccccc1S(=O)(=O)NC(=O)Nc1nc(C)nc(OC)n1 [Metsulfuron-methyl, metsulfuron-methyl] | 6 | 1000 | 50 | 79 | 251 | – | – | – | – | – | – | % phytotox ([5]; HETO108-HETO121, AI dose rate 8 gai/ha, field, 18 days after application, 0%=no phytotoxic effects, 100%=all plants killed): 73%; % phytotox ([6]; ABILITY, AI dose rate 8 gai/ha, field, 18 days after application, 0%=no phytotoxic effects, 100%=all plants killed): 100%
10 | COCc1cnc(C2=NC(C)(C(C)C)C(=O)N2)c(C(=O)O)c1 (centres unmarked) [Imazamox, imazamox] | >25 | >25 | 1 | >25 | 20 | 4.1 | <4 | > 100 µM | > 100 µM | 5.01 µM | 3.98 µM | pest or weed control at 40 g/ha ([5]; Brassica napus, topical, 432 h, HETO108-HETO121, AI dose rate 40 gai/ha, field, 18 days after application, 0%=no phytotoxic effects, 100%=all plants killed, read-out: % phytotox): 19%; pest or weed control at 40 g/ha ([6]; Brassica napus, topical, 432 h, ABILITY, AI dose rate 40 gai/ha, field, 18 days after application, 0%=no phytotoxic effects, 100%=all plants killed, read-out: % phytotox): 99%
11 | CCOc1ccccc1OS(=O)(=O)NC(=O)Nc1nc(OC)cc(OC)n1 [Ethoxysulfuron, ethoxysulfuron] | – | – | – | – | – | – | – | – | – | – | – | pest or weed control at 180 g/ha ([5]; Brassica napus, topical, 432 h, HETO108-HETO121, AI dose rate 180 gai/ha, field, 18 days after application, 0%=no phytotoxic effects, 100%=all plants killed, read-out: % phytotox): 70%; pest or weed control at 180 g/ha ([6]; Brassica napus, topical, 432 h, ABILITY, AI dose rate 180 gai/ha, field, 18 days after application, 0%=no phytotoxic effects, 100%=all plants killed, read-out: % phytotox): 100%
12 | COC(=O)c1ccccc1S(=O)(=O)NC(=O)N(C)c1nc(C)nc(OC)n1 [Tribenuron-methyl, tribenuron-methyl] | – | – | – | – | – | – | – | – | – | – | – | pest or weed control at 20 g/ha ([5]; Brassica napus, topical, 432 h, HETO108-HETO121, AI dose rate 20 gai/ha, field, 18 days after application, 0%=no phytotoxic effects, 100%=all plants killed, read-out: % phytotox): 5%; pest or weed control at 20 g/ha ([6]; Brassica napus, topical, 432 h, ABILITY, AI dose rate 20 gai/ha, field, 18 days after application, 0%=no phytotoxic effects, 100%=all plants killed, read-out: % phytotox): 99%
